The record followed here is patent publication US20260242356A1, “BICYCLIC HETEROCYCLIC AMIDE INHIBITORS OF NAv1.8 FOR THE TREATMENT OF PAIN” (priority 2022, published 2026).

For orientation: IC50 means the concentration that gives 50% inhibition. A higher IC50 goes with weaker potency in that assay.

The target in this assay is T1, human NaV sodium channel α-subunit NaV 1.8 (Homo sapiens, UniProt Q9Y5Y9).
T1 construct: transfected with the full-length cDNA coding for the appropriate human NaV sodium channel α-subunit NaV 1.8; expressed in transfected cells; host or cells: HEK293 cells
T1 sequence (Q9Y5Y9 whole entry): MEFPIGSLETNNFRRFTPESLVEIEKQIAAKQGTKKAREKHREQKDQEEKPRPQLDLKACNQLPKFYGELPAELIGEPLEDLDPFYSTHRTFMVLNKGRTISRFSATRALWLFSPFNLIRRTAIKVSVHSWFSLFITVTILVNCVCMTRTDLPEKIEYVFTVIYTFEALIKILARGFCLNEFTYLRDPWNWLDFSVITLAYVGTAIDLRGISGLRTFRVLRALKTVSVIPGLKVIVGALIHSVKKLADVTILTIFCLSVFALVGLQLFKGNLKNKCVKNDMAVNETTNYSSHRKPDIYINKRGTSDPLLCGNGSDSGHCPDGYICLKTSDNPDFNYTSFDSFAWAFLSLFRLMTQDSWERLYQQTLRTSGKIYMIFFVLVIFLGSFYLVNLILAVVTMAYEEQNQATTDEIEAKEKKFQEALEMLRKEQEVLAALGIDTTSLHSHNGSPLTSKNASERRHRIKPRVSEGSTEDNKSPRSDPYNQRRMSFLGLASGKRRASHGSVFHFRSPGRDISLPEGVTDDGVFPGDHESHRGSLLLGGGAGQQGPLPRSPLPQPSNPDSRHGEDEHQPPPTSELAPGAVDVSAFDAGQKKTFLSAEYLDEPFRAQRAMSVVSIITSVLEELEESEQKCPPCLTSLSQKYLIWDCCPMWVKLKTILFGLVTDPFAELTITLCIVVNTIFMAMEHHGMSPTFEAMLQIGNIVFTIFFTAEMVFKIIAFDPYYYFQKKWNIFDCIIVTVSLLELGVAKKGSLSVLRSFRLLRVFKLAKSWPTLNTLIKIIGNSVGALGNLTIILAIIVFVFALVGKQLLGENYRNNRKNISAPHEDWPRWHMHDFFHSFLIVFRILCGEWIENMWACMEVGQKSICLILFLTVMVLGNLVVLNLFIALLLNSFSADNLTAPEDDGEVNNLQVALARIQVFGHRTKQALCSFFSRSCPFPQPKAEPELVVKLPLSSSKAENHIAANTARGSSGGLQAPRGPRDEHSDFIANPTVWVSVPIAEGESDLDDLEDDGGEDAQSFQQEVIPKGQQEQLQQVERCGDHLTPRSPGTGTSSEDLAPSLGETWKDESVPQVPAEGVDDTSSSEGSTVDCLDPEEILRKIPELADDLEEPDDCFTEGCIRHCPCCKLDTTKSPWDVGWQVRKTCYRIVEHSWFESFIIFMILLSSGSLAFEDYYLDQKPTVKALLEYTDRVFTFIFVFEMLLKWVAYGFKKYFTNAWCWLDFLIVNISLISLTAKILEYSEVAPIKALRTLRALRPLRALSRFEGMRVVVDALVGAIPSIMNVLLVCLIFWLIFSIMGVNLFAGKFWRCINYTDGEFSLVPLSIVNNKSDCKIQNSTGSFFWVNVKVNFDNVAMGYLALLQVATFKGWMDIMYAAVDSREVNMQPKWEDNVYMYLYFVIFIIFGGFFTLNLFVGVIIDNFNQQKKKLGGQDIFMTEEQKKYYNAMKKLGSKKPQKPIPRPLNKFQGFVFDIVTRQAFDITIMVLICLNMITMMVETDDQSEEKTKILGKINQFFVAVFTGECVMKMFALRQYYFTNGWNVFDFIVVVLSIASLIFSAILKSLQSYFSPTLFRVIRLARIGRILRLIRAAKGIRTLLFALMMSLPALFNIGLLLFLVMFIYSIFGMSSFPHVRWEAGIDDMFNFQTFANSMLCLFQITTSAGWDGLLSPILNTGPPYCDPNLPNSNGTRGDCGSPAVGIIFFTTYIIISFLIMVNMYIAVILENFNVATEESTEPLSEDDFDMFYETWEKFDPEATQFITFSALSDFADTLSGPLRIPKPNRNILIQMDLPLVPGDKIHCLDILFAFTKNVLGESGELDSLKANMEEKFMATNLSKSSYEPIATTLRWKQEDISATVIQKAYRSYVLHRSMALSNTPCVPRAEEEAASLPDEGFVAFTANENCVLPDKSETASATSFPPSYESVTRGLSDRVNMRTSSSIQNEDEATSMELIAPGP
Nature of the assay: NaV inhibition assay, whole-cell patch-clamp (HEKA EPC 9 amplifier). The format is cell-based. The method, then: Electrophysiology experiments were performed on Human Embryonic Kidney 293 cells (HEK) or Chinese hamster ovary cells (CHO) transfected with the full-length cDNA coding for the appropriate human NaV sodium channel α-subunit NaV 1.8. Similarly, experiments are performed on Human Embryonic Kidney 293 cells (HEK) or Chinese hamster ovary cells (CHO) transfected with the full-length cDNA coding for the appropriate human NaV sodium channel α-subunit, including NaV 1.7, NaV 1.6, NaV 1.5, and NaV 1.4.
Sodium currents were measured using the patch-clamp technique in the whole-cell configuration with a HEKA EPC 9 amplifier (HEKA Elektronik Dr. Schulze GmbH, Germany) or can be measured using an IonFlux 16 automated patch clamp system (Fluxion Biosciences, South San Francisco, USA) as previously described by Moran. See, Moran O, Picollo A, Conti F (2003) Tonic and phasic guanidinium toxin-block of skeletal muscle Na channels expressed in Mammalian cells, Biophys J 84(5):2999-3006. For manual patch-clamp experiments, borosilicate glass micropipettes (Sutter Instruments, Novato, CA) were pulled to a tip diameter yielding a resistance of 1.0-2.0 MΩ in the working solutions. The composition of intracellular solution was (in mM): CsF 125, EGTA 10, HEPES 10, NaCl 10, and the pH was adjusted to 7.2 with CsOH. The composition of extracellular solution was (in mM): NaCl 135, KCl 4.5, CaCl2 2, MgCl2 1, HEPES 10, and the pH was adjusted to 7.4 with NaOH. For human NaV 1.8, 0.3-1 μM tetrodotoxin (TTX) was added to the extracellular solution to inhibit native TTX-sensitive current. Peak currents were generally between 0.5-20 nA.
Lyophilized stock of each test article was stored at −20° C., solubilized in DMSO (maximum final concentration 1%) and diluted to the desired concentration with the external solution prior to recording. Current measurements were recorded under continuous perfusion, controlled by syringe pump addition.
The output of the EPC 9 patch-clamp amplifier was filtered with a built-in low-pass, four-pole Bessel filter having a cutoff frequency of 10 kHz and sampled at 20-50 kHz. For both manual and automated recordings, the membrane was kept at a holding potential of between −120 and −80 mV. Pulse stimulation and data acquisition were controlled with the Pulse software (HEKA Elektronik Dr. Schulze GmbH, Germany) or the IonFlux software (Fluxion Biosciences, South San Francisco, USA). All measurements were performed at room temperature (about 20-22° C.). Recordings were made at least 5 min after establishing the whole-cell and voltage-clamp configuration to allow for stabilization of the voltage-dependent properties of the channels. Currents were elicited by 10-50 ms step depolarizations from a holding potential to a value between −40 and +10 mV. Peak currents after channel activation were recorded. […] Data were fit to a four-parameter logistic equation with the Hill slope set to 1 to determine IC50 values and expressed as mean.
For Table 1 and Table 2, all data were measured in HEK cells. Column 1 provides IC50 data for NaV 1.8 as measured using the patch-clamp technique in the whole-cell configuration with a HEKA EPC 9 amplifier, where +++ indicates an IC50 of less than or equal to 20 nM, ++ indicates an IC50 of greater than 20 nM but less that or equal to 100 nM, and + indicates an IC50 of greater than 100 nM but less that or equal to […]. ND means not detectable. NT means not tested.
For orientation: Patch clamp records ionic current or voltage across a cell membrane.

For `NS(=O)(=O)c1cccc(NC(=O)c2nc3ccccc3nc2N2CCCC(F)(F)CC2)c1` [Compound 8, 3-(4,4-difluoroazepan-1-yl)-N-(3-sulfamoylphenyl)quinoxaline-2-carboxamide], the IC50 is 20 to 100 nM.

The compound `NC(=O)c1cccc(NC(=O)c2nc3ccccc3nc2N2CCCC(F)(F)CC2)c1` [Compound 14, N-(3-carbamoylphenyl)-3-(4,4-difluoroazepan-1-yl)quinoxaline-2-carboxamide] displayed an IC50 of 20 to 100 nM.

`NS(=O)(=O)c1cccc(NC(=O)c2cc3ccc(Cl)cc3nc2N2CCCC(F)(F)CC2)c1` [Compound 13, 7-chloro-2-(4,4-difluoroazepan-1-yl)-N-(3-sulfamoylphenyl)quinoline-3-carboxamide] had an IC50 of 20 to 100 nM.

As to `NS(=O)(=O)c1cccc(NC(=O)c2cc3cccnc3nc2N2CCCC(F)(F)CC2)c1` [Compound 19, 2-(4,4-difluoroazepan-1-yl)-N-(3-sulfamoylphenyl)-1,8-naphthyridine-3-carboxamide], the “NaV1.8 IC50 (nM)” value (HEK cells transfected with human NaV 1.8, whole-cell patch-clamp, 0.3-1 μM TTX in extracellular solution, room temperature) is given as “+ (+ indicates an IC50 of greater than 100 nM but less that or equal to 1.5 M)”.

`COc1ccc2nc(N3CCCC(F)(F)CC3)c(C(=O)Nc3cccc(S(N)(=O)=O)c3)cc2c1` [Compound 11, 2-(4,4-difluoroazepan-1-yl)-6-methoxy-N-(3-sulfamoylphenyl)quinoline-3-carboxamide] yielded a half-inhibitory concentration (IC50) of less than 20 nM. In turn, `CS(=N)(=O)c1cccc(NC(=O)c2cc3ccccc3nc2N2CCCC(F)(F)CC2)c1` (stereo not drawn) [Compound 1, 2-(4,4-difluoroazepan-1-yl)-N-(3-(S-methylsulfonimidoyl)phenyl)quinoline-3-carboxamide] came in with an IC50 of less than 20 nM. For `NS(=O)(=O)c1cccc(NC(=O)c2cc3cc(Cl)ccc3nc2N2CCCC(F)(F)CC2)c1` [Compound 12, 6-chloro-2-(4,4-difluoroazepan-1-yl)-N-(3-sulfamoylphenyl)quinoline-3-carboxamide], the IC50 was less than 20 nM. For the compound `NC(=O)c1cccc(NC(=O)c2cc3ccccc3nc2N2CCCC(F)(F)CC2)c1` [Compound 4, N-(3-carbamoylphenyl)-2-(4,4-difluoroazepan-1-yl)quinoline-3-carboxamide], the IC50 is less than 20 nM. On the same count and under the same terms, with `NS(=O)(=O)c1cccc(NC(=O)c2cc3cc(F)c(F)cc3nc2N2CCCC(F)(F)CC2)c1` [Compound 10, 2-(4,4-difluoroazepan-1-yl)-6,7-difluoro-N-(3-sulfamoylphenyl)quinoline-3-carboxamide] the figure was 20 to 100 nM; with `COc1ccc2cc(C(=O)Nc3cccc(S(N)(=O)=O)c3)c(N3CCCC(F)(F)CC3)nc2c1` [Compound 16, 2-(4,4-difluoroazepan-1-yl)-7-methoxy-N-(3-sulfamoylphenyl)quinoline-3-carboxamide], 20 to 100 nM. Consider `CC1CN(c2nc3ccccc3cc2C(=O)Nc2cccc(S(N)(=O)=O)c2)CCC1(F)F` (stereo not drawn) [Compound 5, 2-(4,4-difluoro-3-methylpiperidin-1-yl)-N-(3-sulfamoylphenyl)quinoline-3-carboxamide], for which the IC50 was less than 20 nM. On to `NS(=O)(=O)c1cccc(NC(=O)c2cc3ccc(F)cc3nc2N2CCCC(F)(F)CC2)c1` [Compound 28, 2-(4,4-difluoroazepan-1-yl)-7-fluoro-N-(3-sulfamoylphenyl)quinoline-3-carboxamide], for which the IC50 is less than 20 nM.

In turn, `Nc1noc2ccc(NC(=O)c3cc4ccccc4nc3N3CCCC(F)(F)CC3)cc12` [Compound 3, N-(3-aminobenzo[d]isoxazol-5-yl)-2-(4,4-difluoroazepan-1-yl)quinoline-3-carboxamide] registered an IC50 of less than 20 nM.

Compound `NS(=O)(=O)c1cccc(NC(=O)c2cc3cc(F)ccc3nc2N2CCCC(F)(F)CC2)c1` [Compound 9, 2-(4,4-difluoroazepan-1-yl)-6-fluoro-N-(3-sulfamoylphenyl)quinoline-3-carboxamide] yielded an IC50 of 20 to 100 nM. For `CS(=O)(=O)c1cccc(NC(=O)c2nc3ccccc3nc2N2CCCC(F)(F)CC2)c1` [Compound 6, 3-(4,4-difluoroazepan-1-yl)-N-(3-methanesulfonylphenyl)quinoxaline-2-carboxamide], the IC50 is less than 20 nM. The compound `NS(=O)(=O)c1cccc(NC(=O)c2cc3cnccc3nc2N2CCCC(F)(F)CC2)c1` [Compound 20, 2-(4,4-difluoroazepan-1-yl)-N-(3-sulfamoylphenyl)-1,6-naphthyridine-3-carboxamide] yielded an IC50 of 20 to 100 nM.

In turn, `NS(=O)(=O)c1cccc(NC(=O)c2cc3ccccc3nc2N2CCCC(F)(F)CC2)c1` [Compound 2, 2-(4,4-difluoroazepan-1-yl)-N-(3-sulfamoylphenyl)quinoline-3-carboxamide] had an IC50 of less than 20 nM. As to `NS(=O)(=O)c1cccc(NC(=O)c2cc3ccncc3nc2N2CCCC(F)(F)CC2)c1` [Compound 15, 2-(4,4-difluoroazepan-1-yl)-N-(3-sulfamoylphenyl)-1,7-naphthyridine-3-carboxamide], the IC50 was less than 20 nM. For the compound `CS(=N)(=O)c1cccc(NC(=O)c2nc3ccccc3nc2N2CCCC(F)(F)CC2)c1` (stereo not drawn) [Compound 7, 3-(4,4-difluoroazepan-1-yl)-N-(3-(S-methylsulfonimidoyl)phenyl)quinoxaline-2-carboxamide], the IC50 lay within 20 to 100 nM. `NS(=O)(=O)c1cccc(NC(=O)c2cc3c(nc2N2CCCC(F)(F)CC2)CCCC3)c1` [Compound 18, 2-(4,4-difluoroazepan-1-yl)-N-(3-sulfamoylphenyl)-5,6,7,8-tetrahydroquinoline-3-carboxamide] came in with an IC50 of 20 to 100 nM. The same measure, in the same setting: with `NS(=O)(=O)c1cccc(NC(=O)c2cc3cc(C(F)(F)F)ccc3nc2N2CCCC(F)(F)CC2)c1` [Compound 17] the figure was less than 20 nM.
